Eight compounds from publication PMC6316234, “Bromopyrrole Alkaloids from the Sponge Agelas kosrae” (Marine Drugs, 2018) can be followed below.

One assay deals with A549. Nature of the assay: Anti-proliferative activity, SRB staining assay, A549. The format is cell-based. As to conditions: Homo sapiens, 72 h, read-out: IC50 Anti-Proliferation A549. The procedure:
(§1) Anti-proliferative activity was evaluated using SRB staining assay in various cancer cell lines (K562, A549, HCT116, MDA-MB-231, SNU638, SK-Hep-1). Cells were purchased from the American Type Culture Collection (ATCC, Rockville, MD, USA). They were cultured in media supplemented with 10% fetal bovine serum (FBS) and antibiotics–antimycotics (PSF; 100 units/mL penicillin G sodium, […], and 250 ng/mL amphotericin B). All cells were maintained at 37 °C under a humidified atmosphere containing 5% CO2. Briefly, cells were seeded in 96-well plates with various doses of compounds and incubated for 72 h. The cells were stained as previously described. First, cells were fixed with 10% trichloroacetic acid and stained with 0.4% SRB in a 1% acetic acid solution. After washing and drying, dyes were dissolved in 10 mM Tris buffer (pH 10.0) and absorbance was measured at 515 nm. The percentage of cell proliferation was determined according to the following formula: cell proliferation (%) = 100 × ((A treated − A zero day)/(A control − A zero day)), where A is the average absorbance. The IC50 values were calculated through non-linear regression analysis using TableCurve 2D v5.01 (Systat Software Inc., San Jose, CA, USA).

The test system of a further assay is SK-Hep-1. Nature of the assay: Anti-proliferative activity, SRB staining assay, SK-Hep-1. As to conditions: Homo sapiens, SK-HEP1, 72 h, read-out: IC50 Anti-Proliferation SK-Hep-1. The assay is classed as cell-based. The procedure:
as §1

Assay [1] relates to human umbilical vein endothelial cells (HUVEC). The assay can be described thus: HUVEC cell viability, MTT assay. The assay is classed as cell-based. As to conditions: VEGF 50 ng/mL, 24 h, read-out: IC50 Anti-Angiogenesis Cell Viability. The procedure:
(§2) Anti-angiogenic activity was evaluated using human umbilical vein endothelial cells (HUVEC) using previously described experimental methods. HUVEC cells were purchased from the American Type Culture Collection (ATCC, Rockville, MD, USA) and cultured in EGM-2 (Lonza, Walkerswille, MD, USA) supplemented with 10% fetal bovine serum (FBS) and antibiotics–antimycotics (PSF; 100 units/mL penicillin G sodium, […], and 250 ng/mL amphotericin B). Briefly, HUVEC cells were mixed with tested compounds in 0.5% FBS EBM-2 media stimulated with or without VEGF (50 ng/mL) on matrigel-coated 96-well plates for 6 h at 37 °C under a humidified atmosphere containing 5% CO2. After the tube formation, cells were photographed using an inverted microscope (Olympus Optical Co. Ltd., Tokyo, Japan), then images were quantified with Angiogenesis Analyzer using Image J software. Tube formation activity was calculated using the following formula: (Total segment # (tested compound) − Total segment # (VEGF−))/(Total segment # (VEGF+) − Total segment # (VEGF−)) × 100. The IC50 value was calculated through non-linear regression analysis using TableCurve 2D v5.01 (Systat Software Inc., San Jose, CA, USA). Cell viability with HUVEC cells were measured independently. First, HUVEC cells were seeded into a 96-well plate and the culture medium was replaced with a serum-free medium when it reached 60% confluency. After overnight starvation, cells were treated with samples and VEGF (50 ng/mL) in 2% FBS EBM-2 medium. Cells were further incubated for 24 h, and MTT assay was used to measure the cell viability. The formazan products were dissolved in dimethyl sulfoxide (DMSO). The absorbance was measured at 570 nm using VersaMax ELISA microplate reader (Molecular Devices, Sunnyvale, CA, USA).

Assay [2] shares this test system. The assay can be described thus: Anti-angiogenic activity, VEGF-induced tube formation assay. The assay is classed as cell-based. The note with it: for IC50: Homo sapiens, HUVEC, VEGF 50 ng/mL, 6 h, read-out: IC50 Anti-Angiogenesis Tube Formation. The procedure:
as §2

The test system of another assay is K562. The assay can be described thus: Anti-proliferative activity, SRB staining assay, K562. The format is cell-based. The note with it: Homo sapiens, 72 h. The procedure:
as §1

The next assay has as its system SNU638. Nature of the assay: Anti-proliferative activity, SRB staining assay, SNU638. The assay is classed as cell-based. The note with it: Homo sapiens, SNU-638, 72 h, read-out: IC50 Anti-Proliferation SNU 638. The procedure: as §1
Another assay concerns HCT116. The assay can be described thus: Anti-proliferative activity, SRB staining assay, HCT116. The note with it: Homo sapiens, HCT-116, 72 h, read-out: IC50 Anti-Proliferation HCT 116. The format is cell-based. The procedure:
as §1

The target in assay [3] is Candida albicans-derived isocitrate lyase (ICL) (Candida albicans, UniProt Q9P8Q7). Nature of the assay: biochemical. The format is biochemical. The procedure:
A 1 mL aliquot of the reaction mixture contained 20 mM sodium phosphate buffer (pH 7.0), 1.27 mM threo-DL-(+)-isocitrate, 3.75 mM MgCl2, 4.1 mM phenylhydrazine, and 2.5 μg/mL of recombinant ICL. The reaction was immediately initiated following the addition of a substrate with or without a prescribed concentration of the inhibitor dissolved in DMSO (final concentration, 1%). Glyoxylate phenylhydrazone formation was spectrophotometrically assessed at 324 nm after incubation at 37 °C for 30 min. The percent inhibition of ICL enzyme activity for each compound was calculated relative to the inhibitor-free control and the IC50 values were calculated using nonlinear regression analysis (percent inhibition versus concentration). 3-Nitropropionic acid was used as a positive control. Protein concentrations were measured using the Bradford method with the Bio-Rad protein assay kit (Bio-Rad) and bovine serum albumin as the standard.

A further assay has as its system MDA-MB-231. Nature of the assay: Anti-proliferative activity, SRB staining assay, MDA-MB-231. The format is cell-based. As to conditions: Homo sapiens, 72 h, read-out: IC50 Anti-Proliferation MDA-MB-231. As to the method: as §1
[4] abbreviates: recombinant ICL, 37 °C, 30 min, read-out: IC50 ICL.

Read-outs that look alike come from different tables or passages of the source.

Chain of Candida albicans-derived isocitrate lyase (ICL) (Q9P8Q7 whole entry): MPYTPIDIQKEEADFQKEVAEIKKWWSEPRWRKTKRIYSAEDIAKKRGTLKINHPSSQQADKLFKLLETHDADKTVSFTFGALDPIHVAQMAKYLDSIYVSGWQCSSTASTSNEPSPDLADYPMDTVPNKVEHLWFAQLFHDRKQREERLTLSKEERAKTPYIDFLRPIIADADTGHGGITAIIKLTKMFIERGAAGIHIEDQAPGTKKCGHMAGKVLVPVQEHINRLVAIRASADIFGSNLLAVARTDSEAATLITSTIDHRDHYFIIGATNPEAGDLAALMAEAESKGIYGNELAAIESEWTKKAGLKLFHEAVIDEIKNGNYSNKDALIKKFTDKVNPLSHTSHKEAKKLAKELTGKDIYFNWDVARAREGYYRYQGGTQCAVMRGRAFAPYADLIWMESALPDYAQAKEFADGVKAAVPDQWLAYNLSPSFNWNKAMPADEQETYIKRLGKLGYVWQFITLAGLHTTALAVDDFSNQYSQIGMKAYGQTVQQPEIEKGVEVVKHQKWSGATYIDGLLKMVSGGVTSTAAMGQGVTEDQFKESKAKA

As to `NC1=NC(=O)C([C@@H]2[C@@H](CNC(=O)c3cc(Br)c[nH]3)[C@H](CNC(=O)c3cc(Br)c[nH]3)[C@H]2C2NC(N)=NC2=O)N1` (mixture of isomers) [Compound 1, dioxysceptrin], the IC50 is 31.3 µM with A549; 35.2 µM in the assay on SK-Hep-1; > 40 µM in assay [1]; 7.99 µM in assay [2]; 12.9 µM with K562; 7.92 µM in the assay on SNU638. The IC50 is 9.93 µM in the assay on HCT116, > 100 µM in [3] (setting [4]) and 32.8 µM with MDA-MB-231. The “anti-angiogenic activity in the tube formation assay” value in [2] (non-cytotoxic concentrations range 5–20 μM) is “moderate anti-angiogenic activity”.

In the case of `O=C(NC[C@H]1[C@H](CNC(=O)c2cc(Br)c[nH]2)[C@@H](C(=O)O)[C@@H]1C(=O)O)c1cc(Br)c[nH]1` [Compound 2, ageleste C], the IC50 is 49.3 µM with A549; > 50 µM with SK-Hep-1; > 40 µM in [1]; > 40 µM in assay [2]; 19.1 µM in the assay on K562; 36.8 µM with SNU638. The values for the IC50 (in the assay on HCT116; in assay [3] (setting [4]); in the assay on MDA-MB-231) were 44.1 µM, 22.1 µM and > 50 µM, respectively. In addition, in [3], the “inhibition of isocitrate lyase (ICL)” value was “moderate inhibition”.

On to `COC(=O)[C@@H]1[C@@H](CNC(=O)c2cc(Br)c[nH]2)[C@H](CNC(=O)c2cc(Br)c[nH]2)[C@H]1C(=O)O` [Compound 3, ageleste A], for which the IC50 is > 50 µM in the assay with A549; > 50 µM with SK-Hep-1; > 40 µM in assay [1]; > 40 µM in assay [2]; 37.6 µM with K562; > 50 µM with SNU638. Also, the IC50 in the assay on HCT116 is > 50 µM; in assay [3] (setting [4]) it was > 100 µM; with MDA-MB-231, > 50 µM.

In turn, `O=C(O)CC[N+](=O)[O-]` [Compound 3-NP, 3-Nitropropionic acid, reference compound] displayed an IC50 in [3] of 11.1 µM.

With `COC(=O)[C@@H]1[C@@H](CNC(=O)c2cc(Br)c[nH]2)[C@H](CNC(=O)c2cc(Br)c[nH]2)[C@H]1C(=O)OC` [Compound 4, ageleste B], the IC50 was 30.5 µM in the assay on A549; > 50 µM with SK-Hep-1; > 40 µM in assay [1]; > 40 µM in [2]; 26.4 µM in the assay on K562; 37.1 µM with SNU638. In addition, the IC50 is 38.2 µM in the assay with HCT116, 85.3 µM in assay [3] (setting [4]) and > 50 µM in the assay with MDA-MB-231.

For the compound `COc1cccc2c1C(=O)c1c(O)c3c(c(O)c1C2=O)C[C@@](O)(C(=O)CO)C[C@@H]3O[C@H]1C[C@H](N)[C@H](O)[C@H](C)O1` [Doxorubicin, reference compound], in the assay with K562, the IC50 is 1.08 µM.

For the compound `COc1cc([C@@H]2c3cc4c(cc3[C@@H](O[C@@H]3O[C@@H]5CO[C@@H](C)O[C@H]5[C@H](O)[C@H]3O)[C@H]3COC(=O)[C@H]23)OCO4)cc(OC)c1O` [Etoposide, reference compound], the IC50 turned out to be 0.83 µM with A549; 0.74 µM with SK-Hep-1; 0.63 µM in the assay on SNU638; 0.73 µM with HCT116; 3.12 µM with MDA-MB-231.

Turning to `CCN(CC)CCNC(=O)c1c(C)[nH]c(/C=C2\C(=O)Nc3ccc(F)cc32)c1C` [Sunitinib, sunitinib, reference compound], the IC50 in assay [1] amounted to 9.92 µM; in assay [2], 2.41 µM.
